Results reported in patent US10457649B2, “Polymorphs of a mPGES-1 inhibiting triazolone compound” (Glenmark Pharmaceuticals S.A., priority 2015, dated 2019).

Assay: Stability studies of compound of formula II on storage; degradation products estimated by HPLC
Format: physicochemical
Text: Apparatus: A High Performance Liquid Chromatograph equipped with quaternary gradient pumps, variable wavelength UV detector attached with data recorder and Integrator software or equivalent.
Column: Zorbax Eclipse XDB C-8, 150 mm×4.6 mm, 5μ or equivalent
Mobile phase: A: Buffer B: Methanol (Gradient Program)
Buffer: Water, pH adjusted to 2.2 with trifluoroacetic acid solution. Filter through 0.45μ filter paper and degas.
Diluent: Water: Methanol (20:80 v/v)
Detection wavelength: UV 270 nm
Column temperature: 25° C.
25 mg of the compound was weighed and transferred into a 50 mL volumetric flask. Methanol (5 ml) was added and it was sonicated to dissolve. The diluent was added to make up the solution to the mark of the flask.
The equal volumes of blank (diluent) and test solution were separately injected into the High Performance liquid chromatography. The responses were recorded eliminating the peaks due to blank and the chromatographic purity by area was calculated by normalization method.
The compound of formula II was stored under conditions as shown in below table and a total amount of degradation products (related substances) as well as single maximum impurity formed during storage was estimated by HPLC. The material was packed in inner clear polythene bag under nitrogen lined with black polythene bag, covered with triple laminated aluminium bag placed in HDPE drum and subjected to the conditions mentioned in the table 5.
The result of stability studies of compound of formula (II) carried out under the conditions mentioned in the table 5 is presented in tables 6 and 7.

[1] = storage condition 1: 25 ± 2° C., 60 ± 5% RH, storage period 0 months
[2] = storage condition 1: 25 ± 2° C., 60 ± 5% RH, storage period 3 months
[3] = storage condition 1: 25 ± 2° C., 60 ± 5% RH, storage period 6 months
[4] = storage condition 2: 40 ± 2° C., 75 ± 5% RH, storage period 0 months
[5] = storage condition 2: 40 ± 2° C., 75 ± 5% RH, storage period 1 month
[6] = storage condition 2: 40 ± 2° C., 75 ± 5% RH, storage period 2 months
[7] = storage condition 2: 40 ± 2° C., 75 ± 5% RH, storage period 3 months
[8] = storage condition 2: 40 ± 2° C., 75 ± 5% RH, storage period 6 months

CC(C)(C)C(=O)NCc1ccc(Cl)c(-c2nn(-c3ccc(C(F)(F)F)cc3)c(=O)[nH]2)c1 [compound of formula II, N-(4-chloro-3-(5-oxo-1-(4-(trifluoromethyl)phenyl)-4,5-dihydro-1H-1,2,4-triazol-3-yl)benzyl)pivalamide]
Related substances [1]: 0.13% | Single max. impurity [1]: 0.13% | Related substances [2]: 0.14% | Single max. impurity [2]: 0.14% | Related substances [3]: 0.14% | Single max. impurity [3]: 0.14% | Related substances [4]: 0.13% | Single max. impurity [4]: 0.13% | Related substances [5]: 0.14% | Single max. impurity [5]: 0.14% | Related substances [6]: 0.13% | Single max. impurity [6]: 0.13% | Related substances [7]: 0.14% | Single max. impurity [7]: 0.14% | Related substances [8]: 0.13% | Single max. impurity [8]: 0.13%
